Experimental data reported in BindingDB's records for doi:10.7270/Q2668BMS (Burnham Center For Chemical Genomics, 2010).
Where “and” joins values, the source holds several entries; their conditions need not be identical. Identical values can stand only once.

Biological target: T1, Amyloid-beta A4 precursor protein-binding family A member 1 (Rattus norvegicus, UniProt O35430)
T1 sequence (O35430 whole entry): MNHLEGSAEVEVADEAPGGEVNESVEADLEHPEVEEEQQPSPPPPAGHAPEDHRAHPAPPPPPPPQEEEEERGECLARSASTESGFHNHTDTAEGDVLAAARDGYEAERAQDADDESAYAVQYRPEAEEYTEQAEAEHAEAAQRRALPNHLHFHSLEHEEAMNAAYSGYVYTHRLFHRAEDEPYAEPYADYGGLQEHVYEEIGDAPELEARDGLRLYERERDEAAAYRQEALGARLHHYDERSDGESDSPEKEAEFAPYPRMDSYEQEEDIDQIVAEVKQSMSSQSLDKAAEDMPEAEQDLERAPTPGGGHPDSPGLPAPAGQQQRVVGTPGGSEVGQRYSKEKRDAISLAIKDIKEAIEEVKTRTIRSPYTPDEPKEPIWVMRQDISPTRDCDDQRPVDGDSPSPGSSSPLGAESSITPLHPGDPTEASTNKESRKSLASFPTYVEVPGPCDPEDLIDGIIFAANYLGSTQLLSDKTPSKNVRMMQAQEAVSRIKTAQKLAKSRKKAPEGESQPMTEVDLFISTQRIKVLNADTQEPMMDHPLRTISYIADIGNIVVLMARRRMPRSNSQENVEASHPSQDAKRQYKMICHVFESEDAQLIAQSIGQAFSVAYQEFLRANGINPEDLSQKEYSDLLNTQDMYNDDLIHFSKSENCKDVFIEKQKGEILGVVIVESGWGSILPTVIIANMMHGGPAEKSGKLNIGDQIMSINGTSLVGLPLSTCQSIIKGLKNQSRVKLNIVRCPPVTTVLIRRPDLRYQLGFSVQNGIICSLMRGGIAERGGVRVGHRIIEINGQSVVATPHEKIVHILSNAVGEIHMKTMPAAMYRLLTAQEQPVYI
Experiment: disruptors of Mint-PDZ/N-type channel peptide interaction – biochemical, HTRF, set 2, SAR follow-up (AID 434980)

Row | Structure (SMILES) | IC50
1 | CC12C=CC(C)(O1)c1c2c(O)n(-c2ccccc2)c1O [4,7-dimethyl-2-phenyl-3a,7a-dihydro-octahydro-1H-4,7-epoxyisoindole-1,3-dione] | 10.5 µM
2 | CC(=O)Oc1ccc(-n2c(O)c3c(c2O)C2C=CC3O2)cc1 [[4-(1,3-dioxo-3a,4,7,7a-tetrahydro-octahydro-1H-4,7-epoxyisoindol-2-yl)phenyl] acetate] | 18.8 µM
3 | CC12C=CC(C)(O1)c1c2c(O)n(-c2ccc(F)cc2)c1O [2-(4-fluorophenyl)-4,7-dimethyl-3a,7a-dihydro-octahydro-1H-4,7-epoxyisoindole-1,3-dione] | 8.89 µM
4 | CC(=O)Oc1cccc(-n2c(O)c3c(c2O)C2(C)C=CC3(C)O2)c1 | 9.86 µM and 9.63 µM
5 | Cc1ccc(-n2c(O)c3c(c2O)C2(C)C=CC3(C)O2)cc1 | > 56.8 µM
6 | COC(=O)c1cc(-n2c(O)c3c(c2O)C2(C)C=CC3(C)O2)ccc1Cl [MLS000107828] | > 56.8 µM
7 | CCCc1ccc(CC2=C(C(=O)OCC)C(=O)c3ccccc3C2=O)cc1 [MLS000571357] | 5.7 µM

Other lines, results leading:

Row | IC50 | Structure (SMILES)
8 | 6.39 µM | CC(=O)Oc1ccc(-n2c(O)c3c(c2O)C2(C)C=CC3(C)O2)cc1 [MLS000107813]
9 | > 56.8 µM | CC12C=CC(C)(O1)c1c2c(O)n(-c2ccc3c(c2)OCO3)c1O
10 | > 56.8 µM | CC12C=CC(C)(O1)c1c2c(O)n(-c2ccc(Cl)cc2)c1O
11 | 8.93 µM | Cc1cccc(-n2c(O)c3c(c2O)C2(C)C=CC3(C)O2)c1 [4,7-dimethyl-2-(3-methylphenyl)-3a,7a-dihydro-octahydro-1H-4,7-epoxyisoindole-1,3-dione]
